This is an account of results in patent US12398154B2, “Azaquinazoline pan-KRas inhibitors” (Mirati Therapeutics, Inc., priority 2020, dated 2025).

Among the targets are KRas WT (Homo sapiens, UniProt P01116); KRas G12D (Homo sapiens, UniProt P01116, G12D); KRas G12C (Homo sapiens, UniProt P01116, G12C); KRas G12R (Homo sapiens, UniProt P01116, G12R); KRas G12V (Homo sapiens, UniProt P01116, G12V); KRas G12S (Homo sapiens, UniProt P01116, G12S); KRas G12A (Homo sapiens, UniProt P01116, G12A).
What all share (test): biochemical

Structures are written as SMILES.

KRas G12V, sequence (P01116 1-169 isoform P01116-2 G12V): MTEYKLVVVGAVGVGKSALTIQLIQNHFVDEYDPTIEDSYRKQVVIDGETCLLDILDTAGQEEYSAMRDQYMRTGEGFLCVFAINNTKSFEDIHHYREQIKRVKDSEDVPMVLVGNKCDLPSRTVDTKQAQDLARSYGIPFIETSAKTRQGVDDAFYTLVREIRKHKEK
KRas WT, sequence (P01116 1-169 isoform P01116-2): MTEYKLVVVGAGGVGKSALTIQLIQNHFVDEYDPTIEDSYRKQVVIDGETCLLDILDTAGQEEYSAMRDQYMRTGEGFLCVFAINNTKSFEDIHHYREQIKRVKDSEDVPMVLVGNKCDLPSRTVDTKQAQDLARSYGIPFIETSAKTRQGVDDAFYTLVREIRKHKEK
KRas G12S, sequence (P01116 1-169 isoform P01116-2 G12S): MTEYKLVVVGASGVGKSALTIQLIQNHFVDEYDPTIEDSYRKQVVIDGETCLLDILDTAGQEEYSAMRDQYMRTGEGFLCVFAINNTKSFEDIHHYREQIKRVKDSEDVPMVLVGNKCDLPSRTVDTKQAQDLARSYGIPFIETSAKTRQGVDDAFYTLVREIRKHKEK
KRas G12C, sequence (P01116 1-169 isoform P01116-2 G12C): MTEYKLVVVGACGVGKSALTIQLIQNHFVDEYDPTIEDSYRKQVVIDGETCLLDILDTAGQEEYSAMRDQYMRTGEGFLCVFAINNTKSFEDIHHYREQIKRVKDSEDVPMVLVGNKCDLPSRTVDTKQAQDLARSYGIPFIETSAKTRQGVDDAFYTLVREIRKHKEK
KRas G12D, sequence (P01116 1-169 isoform P01116-2 G12D): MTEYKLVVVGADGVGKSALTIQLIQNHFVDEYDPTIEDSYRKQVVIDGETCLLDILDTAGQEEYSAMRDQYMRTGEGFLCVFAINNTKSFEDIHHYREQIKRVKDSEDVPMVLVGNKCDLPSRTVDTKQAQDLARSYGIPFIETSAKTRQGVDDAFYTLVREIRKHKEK
KRas G12R, sequence (P01116 1-169 isoform P01116-2 G12R): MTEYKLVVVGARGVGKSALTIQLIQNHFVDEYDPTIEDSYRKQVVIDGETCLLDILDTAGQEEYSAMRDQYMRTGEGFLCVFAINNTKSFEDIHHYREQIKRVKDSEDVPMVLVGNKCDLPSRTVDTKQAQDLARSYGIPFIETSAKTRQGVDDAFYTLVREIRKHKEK
KRas G12A, sequence (P01116 1-169 isoform P01116-2 G12A): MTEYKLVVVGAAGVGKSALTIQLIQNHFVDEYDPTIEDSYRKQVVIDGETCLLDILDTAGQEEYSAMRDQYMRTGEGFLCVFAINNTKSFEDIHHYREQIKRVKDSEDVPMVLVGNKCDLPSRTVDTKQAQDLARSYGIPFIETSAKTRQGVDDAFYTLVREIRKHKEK

Broadly, the IC50 is the point on the concentration scale where inhibition reaches its midpoint. Higher therefore signals weaker potency in that assay. Consider `O=C1CC2(CCCN(c3nc(OCC45CCCN4CCC5)nc4c(F)c(-c5cccc6cccc(C(F)(F)F)c56)ncc34)C2)N1` (stereo not drawn) [Example 467, 6-(8-fluoro-2-((hexahydro-1H-pyrrolizin-7a-yl)methoxy)-7-(8-(trifluoromethyl)naphthalen-1-yl)pyrido[4,3-d]pyrimidin-4-yl)-1,6-diazaspiro[3.5]nonan-2-one], for which the concentration for half-maximal inhibition (IC50) against KRas WT was determined as 1480 nM; on KRas G12D, 915 nM; against KRas G12C it was 1110 nM; against KRas G12R it was 1020 nM; on KRas G12V, 651 nM; at KRas G12S, 1140 nM. At KRas G12A, half-maximal inhibition (IC50) required 968 nM.

With `CCc1cccc2cccc(-c3ncc4c(N5CCCC(c6nc[nH]n6)C5)nc(OCC56CCCN5CCC6)nc4c3F)c12` (stereo not drawn) [Example 295, 4-(3-(1H-1,2,4-triazol-3-yl)piperidin-1-yl)-7-(8-ethylnaphthalen-1-yl)-8-fluoro-2-((hexahydro-1H-pyrrolizin-7a-yl)methoxy)pyrido[4,3-d]pyrimidine], the IC50 against KRas WT came out at 2850 nM; against KRas G12D, 2450 nM; against KRas G12C it was 1900 nM; on KRas G12R, 593 nM; on KRas G12V, 948 nM; at KRas G12S it was 2380 nM. At KRas G12A, the IC50 was 1800 nM.

`N#Cc1cccc2cccc(-c3ncc4c(N5CCCC6(CC(=O)N6)C5)nc(OCC56CCCN5CCC6)nc4c3F)c12` (stereo not drawn) [Example 451, 8-(8-fluoro-2-((hexahydro-1H-pyrrolizin-7a-yl)methoxy)-4-(2-oxo-1,6-diazaspiro[3.5]nonan-6-yl)pyrido[4,3-d]pyrimidin-7-yl)-1-naphthonitrile]: the IC50 was found to be 2270 nM against KRas WT; 2580 nM against KRas G12D; 1900 nM at KRas G12C; 4170 nM against KRas G12R; 2860 nM against KRas G12V; 2060 nM at KRas G12S. It took 3120 nM to reach half-maximal inhibition against KRas G12A (IC50).

On to `CCc1c(F)ccc2cc(O)cc(-c3ncc4c(N5CCC[C@@](C)(O)C5)nc(C(=O)NC(C)CN(C)C)nc4c3F)c12` (stereo partly drawn) [Example 312, N-(1-(dimethylamino)propan-2-yl)-7-(8-ethyl-7-fluoro-3-hydroxynaphthalen-1-yl)-8-fluoro-4-((R)-3-hydroxy-3-methylpiperidin-1-yl)pyrido[4,3-d]pyrimidine-2-carboxamide], for which the IC50 at KRas WT amounted to 202 nM; at KRas G12D, 388 nM; on KRas G12C it was 212 nM; against KRas G12R, 203 nM; at KRas G12V, 254 nM; against KRas G12S, 172 nM. On KRas G12A, this molecule had an IC50 of 156 nM.

In the case of `C#Cc1c(F)ccc2cc(O)cc(-c3ncc4c(N5CCCC(O)C5)nc(OCCN(C)C)nc4c3F)c12` (stereo not drawn) [Example 387, 1-(2-(2-(dimethylamino)ethoxy)-7-(8-ethynyl-7-fluoro-3-hydroxynaphthalen-1-yl)-8-fluoropyrido[4,3-d]pyrimidin-4-yl)piperidin-3-ol], the IC50 against KRas WT was 106 nM; against KRas G12D, 124 nM; on KRas G12C it was 96 nM; on KRas G12R, 125 nM; at KRas G12V, 130 nM; at KRas G12S, 113 nM. This molecule also displayed an IC50 against KRas G12A of 128 nM.

As for `O=C1NC(=O)C2(CCCN(c3nc(OCC45CCCN4CCC5)nc4c(F)c(-c5cccc6cccc(CO)c56)ncc34)C2)N1` (stereo not drawn) [Example 447, 7-(8-fluoro-2-((hexahydro-1H-pyrrolizin-7a-yl)methoxy)-7-(8-(hydroxymethyl)naphthalen-1-yl)pyrido[4,3-d]pyrimidin-4-yl)-1,3,7-triazaspiro[4.5]decane-2,4-dione], the IC50 at KRas WT was 557 nM; against KRas G12D it was 1100 nM; against KRas G12C, 608 nM; against KRas G12R, 964 nM; on KRas G12V, 744 nM; on KRas G12S it was 587 nM. This molecule also displayed an IC50 on KRas G12A of 665 nM.

In the case of `Cc1cccc2cccc(-c3ncc4c(N5CCCC6(C5)NC(=O)NC6=O)nc(OCC56CCCN5CCC6)nc4c3F)c12` (stereo not drawn) [Example 448, 7-(8-fluoro-2-((hexahydro-1H-pyrrolizin-7a-yl)methoxy)-7-(8-methylnaphthalen-1-yl)pyrido[4,3-d]pyrimidin-4-yl)-1,3,7-triazaspiro[4.5]decane-2,4-dione], the IC50 came to 53 nM against KRas WT; 87 nM on KRas G12D; 53 nM on KRas G12C; 61 nM on KRas G12R; 54 nM at KRas G12V; 49 nM on KRas G12S. Moreover, half-maximal inhibition against KRas G12A (IC50) was put at 59 nM.

Consider `CCc1cccc2cccc(-c3ncc4c(N5CCCC6(C5)NC(=O)NC6=O)nc(OCC56CCCN5CCC6)nc4c3F)c12` (stereo not drawn) [Example 293, 7-(7-(8-ethylnaphthalen-1-yl)-8-fluoro-2-((hexahydro-1H-pyrrolizin-7a-yl)methoxy)pyrido[4,3-d]pyrimidin-4-yl)-1,3,7-triazaspiro[4.5]decane-2,4-dione], for which the IC50 was found to be 6 nM against KRas WT; 10 nM on KRas G12D; 6 nM at KRas G12C; 5 nM at KRas G12R; 4 nM at KRas G12V; 6 nM at KRas G12S. For the same molecule, it took 5 nM to reach half-maximal inhibition at KRas G12A (IC50).

For `OCC1CN(c2nc(OCC34CCCN3CCC4)nc3c(F)c(-c4cccc5cccc(F)c45)ncc23)CCCO1` (stereo not drawn) [Example 269, (4-(8-fluoro-7-(8-fluoronaphthalen-1-yl)-2-((hexahydro-1H-pyrrolizin-7a-yl)methoxy)pyrido[4,3-d]pyrimidin-4-yl)-1,4-oxazepan-2-yl)methanol], the IC50 against KRas WT was 1060 nM; against KRas G12D, 1910 nM; against KRas G12C, 608 nM; against KRas G12R, 1060 nM; on KRas G12V, 1000 nM; at KRas G12S, 725 nM. Also, the IC50 at KRas G12A stood at 1050 nM.

For `CSc1cccc2cccc(-c3ncc4c(N5CCCC6(CC(=O)N6)C5)nc(OCC56CCCN5CCC6)nc4c3F)c12` (stereo not drawn) [Example 469, 6-(8-fluoro-2-((hexahydro-1H-pyrrolizin-7a-yl)methoxy)-7-(8-(methylthio)naphthalen-1-yl)pyrido[4,3-d]pyrimidin-4-yl)-1,6-diazaspiro[3.5]nonan-2-one], the IC50 against KRas WT is 196 nM; on KRas G12D it was 127 nM; at KRas G12C it was 135 nM; against KRas G12R, 149 nM; against KRas G12V, 105 nM; against KRas G12S it was 146 nM. On KRas G12A, this molecule returned an IC50 of 180 nM.

With `N#CCc1cccc2cccc(-c3ncc4c(N5CCCC6(CC(=O)N6)C5)nc(OCC56CCCN5CCC6)nc4c3F)c12` (stereo not drawn) [Example 434, 2-(8-(8-fluoro-2-((hexahydro-1H-pyrrolizin-7a-yl)methoxy)-4-(2-oxo-1,6-diazaspiro[3.5]nonan-6-yl)pyrido[4,3-d]pyrimidin-7-yl)naphthalen-1-yl)acetonitrile], the IC50 against KRas WT was 5130 nM; at KRas G12D, 2200 nM; against KRas G12C, 3480 nM; on KRas G12R, 4510 nM; on KRas G12V, 3210 nM; against KRas G12S, 3520 nM. The IC50 on KRas G12A was 5620 nM.

Turning to `O=C1NC(=O)C2(CCCN(c3nc(OCC45CCCN4CCC5)nc4c(F)c(-c5cccc6cccc(C(F)F)c56)ncc34)C2)N1` (stereo not drawn) [Example 464, 7-(7-(8-(difluoromethyl)naphthalen-1-yl)-8-fluoro-2-((hexahydro-1H-pyrrolizin-7a-yl)methoxy)pyrido[4,3-d]pyrimidin-4-yl)-1,3,7-triazaspiro[4.5]decane-2,4-dione], the IC50 on KRas WT was found to be 661 nM; against KRas G12D it was 986 nM; at KRas G12C, 459 nM; against KRas G12R it was 513 nM; on KRas G12V it was 469 nM; on KRas G12S, 355 nM. The IC50 on KRas G12A came to 507 nM.

On to `O=C1NC(=O)C2(CCCN(c3nc(OCC45CCCN4CCC5)nc4c(F)c(-c5cccc6cccc(Cl)c56)ncc34)C2)N1` (stereo not drawn) [Example 282, 7-(7-(8-chloronaphthalen-1-yl)-8-fluoro-2-((hexahydro-1H-pyrrolizin-7a-yl)methoxy)pyrido[4,3-d]pyrimidin-4-yl)-1,3,7-triazaspiro[4.5]decane-2,4-dione], for which the IC50 against KRas WT amounted to 15 nM; on KRas G12D, 30 nM; at KRas G12C, 16 nM; on KRas G12R it was 18 nM; on KRas G12V it was 15 nM; at KRas G12S, 15 nM. Also, the IC50 at KRas G12A turned out to be 16 nM.

For the molecule `CCc1cccc2cccc(-c3ncc4c(N5CCOCC(CO)C5)nc(OCC56CCCN5CCC6)nc4c3F)c12` (stereo not drawn) [Example 289, (4-(7-(8-ethylnaphthalen-1-yl)-8-fluoro-2-((hexahydro-1H-pyrrolizin-7a-yl)methoxy)pyrido[4,3-d]pyrimidin-4-yl)-1,4-oxazepan-6-yl)methanol], the IC50 amounted to 818 nM at KRas WT; 5610 nM against KRas G12D; 407 nM at KRas G12C; 754 nM at KRas G12R; 807 nM against KRas G12V; 520 nM against KRas G12S. Besides, on KRas G12A, the IC50 was found to be 607 nM.

With `Cc1ccc2[nH]ncc2c1-c1ncc2c(N3CCCC(C)(O)C3)nc(OCC34CCCN3CCC4)nc2c1F` (stereo not drawn) [Example 430, 1-(8-fluoro-2-((hexahydro-1H-pyrrolizin-7a-yl)methoxy)-7-(5-methyl-1H-indazol-4-yl)pyrido[4,3-d]pyrimidin-4-yl)-3-methylpiperidin-3-ol], the IC50 against KRas WT came to 8050 nM; against KRas G12D, 6450 nM; against KRas G12C it was 7830 nM; on KRas G12R it was 8770 nM; against KRas G12V, 4760 nM; against KRas G12S, 7720 nM. This molecule returned an IC50 at KRas G12A of 6820 nM.
